Data set [1] concerns the target T1, intestinal lactase (Homo sapiens, UniProt P09848).
T1 construct: after its oral administration it is hydrolysed by the intestinal mucosa enzyme; from tissue; host or cells: small-intestinal mucosa (enterocyte brush border) of living human volunteers and patients, in vivo
As to the kind of experiment: Urinary excretion of xylose after single oral doses of 4-GX in healthy volunteers. The class given is in vivo. As to the method:
Two groups of subjects were selected. […] Firstly, the lowest suitable oral dose of 4-GX administered to healthy volunteers was determined that enabled reliable detection (in terms of accuracy and reproducibility) of xylose levels in urine and blood via the analytical method to be used. In addition, the tolerance of these subjects to the various doses of 4-GX used in the test and the pharmacokinetics for each dose administered were analysed, both in urine and blood. The doses of 4-GX used were: 0.125 g, 0.250 g, 0.5 g, 1 g, 3 g and 6 g in addition to placebo in 12 healthy volunteers with washout period between doses of between three and seven days. It should be appreciated that the 4-GX doses can include small quantities of water which remain subsequent to the drying process of the 4-GX product. For example, the 4-GX product can contain about 8 wt % to about 12 wt %, most likely about 10 wt % water, based on the total weight of the product. […] In each study period, an ascending dose of 4-GX was administered and the serum and urine concentrations of xylose were measured at various times up to 8 hours following the administration of the drug.
The main measured variable was the quantity of xylose in urine collected following oral administration of 4-GX at the following times: basal, 0-1 h, 1-2 h, 2-3 h, 3-4 h, 4-5 h, 5-6 h, 6-7 h and 7-8 h. […]

Data set [2] has as its target T1, intestinal lactase. In words: Plasma xylose concentration after single oral doses of 4-GX in healthy volunteers. The class given is in vivo. The following applies: for AUC 0-t: area under the curve of plasma xylose concentration against time: mean. Here is the method:
Two groups of subjects were selected. […] Firstly, the lowest suitable oral dose of 4-GX administered to healthy volunteers was determined that enabled reliable detection (in terms of accuracy and reproducibility) of xylose levels in urine and blood via the analytical method to be used. In addition, the tolerance of these subjects to the various doses of 4-GX used in the test and the pharmacokinetics for each dose administered were analysed, both in urine and blood. The doses of 4-GX used were: 0.125 g, 0.250 g, 0.5 g, 1 g, 3 g and 6 g in addition to placebo in 12 healthy volunteers with washout period between doses of between three and seven days. It should be appreciated that the 4-GX doses can include small quantities of water which remain subsequent to the drying process of the 4-GX product. For example, the 4-GX product can contain about 8 wt % to about 12 wt %, most likely about 10 wt % water, based on the total weight of the product. Accordingly, the aforementioned 4-GX doses administered would actually include 0.1125 g, 0.225 g, 0.45 g, 0.9 g, 2.7 g and 5.4 g of actual 4-GX product, respectively, if they contain 10 wt % water. The study was performed with seven treatment periods and a washout time between the various periods of at least 3 days. In each study period, an ascending dose of 4-GX was administered and the serum and urine concentrations of xylose were measured at various times up to 8 hours following the administration of the drug.
The main measured variable was the quantity of xylose in urine collected following oral administration of 4-GX at the following times: basal, 0-1 h, 1-2 h, 2-3 h, 3-4 h, 4-5 h, 5-6 h, 6-7 h and 7-8 h. Secondary variables quantified were the plasma concentration of xylose measured in blood samples extracted following the oral administration of 4-GX at the following times: basal, 30 min, 60 min, 90 min, 120 min, 150 min, 3 h, 4 h, 5 h, 6 h, 7 h and 8 h. A pharmacokinetic analysis was also performed using the values of AUC (area under the curve of variation in the plasma xylose concentration against time), Cmax (maximum xylose plasma concentration), Tmax (time at which maximum xylose plasma concentration was reached) and T1/2 (elimination half-life), calculated from the plasma concentrations of xylose derived from the hydrolysis of 4-GX by intestinal lactase.
The next objective was the determination and pharmacokinetic analysis of the xylose concentration in plasma in order to identify the smallest dose of 4-GX that could be distinguished from placebo (without 4-GX administration) to be used in the 4-GX test for the diagnosis of intestinal lactase deficiency (Table 3).

In data set [3] the target is T1, intestinal lactase. In words: The three 4-GX tests (4-hour urine, 5-hour urine, blood) taken together. The class given is in vivo. As to conditions: all 4-GX tests; after correcting biopsy diagnosis. Here is the method:
The diagnostic tests to which these patients were subjected were: • Intestinal biopsy: determining intestinal lactase activity therein. • Hydrogen breath test after the oral administration to patients of 50 g of lactose. While this test was being carried out, several capillary-blood glucose test (Glycemia tests) were carried out, calculating the highest increase observed in the blood glucose concentration compared to basal glucose level before starting the test. • 4-GX test in total urine at 0-4 and 0-5 hours, which was orally administered to patients 0.5 g of this product (or 0.45 g in a 4-GX sample including 10 wt % water), collecting the total urine accumulated over 0-4 h and 0-5 h following the administration of 4-GX and determining the amount of excreted xylose in both volumes of urine. • 4-GX test in blood which was orally administered to patients 3 g of this product (or 2.7 g in a 4-GX sample including 10 wt % water) to determine the concentration of plasma xylose in a blood sample 90 minutes after ingestion of the product. The concentration obtained was compared to a basal blood sample extracted before ingestion of 4-GX.
The 4-GX was orally administered in a single dose dissolved in 100 ml of water. […]

Data set [4] deals with T1, intestinal lactase. The following applies: ES 2208099, cited from earlier work.

T1 sequence (P09848 869-1927): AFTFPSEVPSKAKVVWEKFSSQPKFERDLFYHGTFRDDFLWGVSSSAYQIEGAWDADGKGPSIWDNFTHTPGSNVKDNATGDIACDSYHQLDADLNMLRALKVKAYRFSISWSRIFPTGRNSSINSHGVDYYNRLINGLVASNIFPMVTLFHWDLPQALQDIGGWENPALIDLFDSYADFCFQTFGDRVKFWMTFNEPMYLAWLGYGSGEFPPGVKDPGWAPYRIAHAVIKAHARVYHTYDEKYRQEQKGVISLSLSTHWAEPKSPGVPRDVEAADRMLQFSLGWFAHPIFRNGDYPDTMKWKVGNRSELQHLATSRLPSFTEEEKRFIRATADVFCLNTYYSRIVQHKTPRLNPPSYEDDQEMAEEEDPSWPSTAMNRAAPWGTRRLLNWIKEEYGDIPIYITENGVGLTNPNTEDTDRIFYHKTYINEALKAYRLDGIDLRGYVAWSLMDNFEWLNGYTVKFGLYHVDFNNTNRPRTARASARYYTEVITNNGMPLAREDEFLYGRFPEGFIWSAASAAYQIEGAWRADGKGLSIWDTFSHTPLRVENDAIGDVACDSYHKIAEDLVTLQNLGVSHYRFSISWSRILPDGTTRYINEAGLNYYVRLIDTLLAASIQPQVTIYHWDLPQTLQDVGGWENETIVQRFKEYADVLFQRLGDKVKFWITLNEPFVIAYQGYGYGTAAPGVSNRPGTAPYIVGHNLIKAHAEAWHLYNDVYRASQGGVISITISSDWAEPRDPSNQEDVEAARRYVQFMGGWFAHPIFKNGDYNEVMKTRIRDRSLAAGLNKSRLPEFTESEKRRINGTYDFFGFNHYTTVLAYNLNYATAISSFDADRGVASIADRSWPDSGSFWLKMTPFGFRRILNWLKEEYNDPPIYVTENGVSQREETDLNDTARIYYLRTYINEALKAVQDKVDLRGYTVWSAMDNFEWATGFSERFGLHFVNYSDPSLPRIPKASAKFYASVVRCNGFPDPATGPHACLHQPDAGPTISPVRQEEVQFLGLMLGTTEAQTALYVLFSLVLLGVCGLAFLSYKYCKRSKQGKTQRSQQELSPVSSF

On to `O=C[C@H](O)[C@@H](O)[C@@H](CO)O[C@@H]1O[C@H](CO)[C@H](O)[C@H](O)[C@H]1O` [4-GX, 4-O-β-galactopyranosyl-D-xylose], for which, in data set [1], the “lowest dose of 4-GX for which excretion of xylose in urine can be distinguished from placebo” value amounted to 0.5 g. In addition, the “AUC 0-t: area under the curve of plasma xylose concentration against time” value came out at 32.49 mg/dL/h in data set [2] (4-GX 0.125 g oral); 34.25 mg/dL/h in data set [2] (4-GX 0.250 g oral); 35.53 mg/dL/h in data set [2] (4-GX 0.5 g oral); 36.60 mg/dL/h in data set [2] (4-GX 1 g oral); 39.24 mg/dL/h in data set [2] (4-GX 3 g oral); 41.39 mg/dL/h in data set [2] (4-GX 6 g oral). In addition, the “lowest dose of 4-GX for which plasma xylose differs significantly from placebo” value in data set [2] (healthy volunteers) is reported as 3 g. For the same compound, the “recalculated values for sensitivity, specificity, positive and negative predictive values” in data set [3] was “above 95%”. Further, in data set [4] (3 g 4-GX oral, lactose-tolerant adult volunteers), the “time of maximum xylose in plasma after ingestion” value is listed as “around 2 hours”. The “dose of 4-GX sufficient for reliable detection of xylose in urine” value in data set [4] (healthy lactose-tolerant adult volunteers) is 0.25 g.

Source of the values: patent publication US9128100B2, “Non-invasive diagnostic method for the evaluation of intestinal lactase deficiency (hypolactasia)” (Venter Pharma, S.L., priority 2012, dated 2015).
